From patent publication US20140205566A1, “CYCLIC NUCLEUOSIDE DERIVATIVES AND USES THEREOF” (NOVARTIS AG, priority 2012, published 2014)
In brackets after ≈: the same amount, converted by molar mass.

Key:
Format in all cases: physicochemical
[1] = Solubility of crystalline Form I and Form II in various media
[2] = Bulk-state stability and thermal conversion of crystalline forms; conditions: one week when stored at 50° C., 50° C./75% RH and 80° C.
[3] = Slurry competition studies of crystalline forms in 2-propanol; conditions: 2-propanol at room temperature
[4] = Fasted state simulated intestinal fluid [pH 6.5]
[5] = Fed state simulated intestinal fluid [pH 5.8]

For `CCOC(=O)[C@H](C)N[P@@]1(=O)OC[C@H]2O[C@@H](n3cnc4c(OCC)nc(N)nc43)[C@](C)(F)[C@@H]2O1` [Form I, (S)-ethyl 2-(((2R,4aR,6R,7R,7aR)-6-(2-amino-6-ethoxy-9H-purin-9-yl)-7-fluoro-7-methyl-2-oxidotetrahydro-4H-furo[3,2-d][1,3,2]dioxaphosphinin-2-yl)amino)propanoate], which Solubility [1, 4] is on record?
Its Solubility is 0.632 [6.36] mg/ml.

And the Solubility [1, 5]?
Its Solubility is 0.665 [5.80] mg/ml.

And the Solubility ([1]; Simulated gastric fluid [pH 2])?
The Solubility was 0.681 [2.11] mg/ml.

What about the Solubility ([1]; Water) of the same molecule?
The Solubility was 0.799 [3.82] mg/ml.

What about the Solubility ([1]; pH 1 (0.1N HCl)) of the same molecule?
The Solubility was 1.249 [1.39] mg/ml.

What about the Solubility ([1]; pH 3 citrate buffer) of the same molecule?
Its Solubility is 0.816 [3.04] mg/ml.

And the Solubility ([1]; pH 4.65 acetate buffer)?
The Solubility was 0.687 [4.67] mg/ml.

And the Solubility ([1]; pH 6.8 phosphate buffer)?
The Solubility was 0.794 [6.70] mg/ml.

And the “chemical and physical stability in bulk state” value [2]?
Its value is “chemically and physically stable”.

Which results are given for `CCOC(=O)[C@H](C)N[P@@]1(=O)OC[C@H]2O[C@@H](n3cnc4c(OCC)nc(N)nc43)[C@](C)(F)[C@@H]2O1` [Form II, (S)-ethyl 2-(((2R,4aR,6R,7R,7aR)-6-(2-amino-6-ethoxy-9H-purin-9-yl)-7-fluoro-7-methyl-2-oxidotetrahydro-4H-furo[3,2-d][1,3,2]dioxaphosphinin-2-yl)amino)propanoate]?
relative thermodynamic stability (slurry competition) [3]: thermodynamically more stable than Form I and III; Solubility [1, 4]: 0.0888 mg/mL (≈ 182 µM); Solubility [1, 5]: 0.0995 mg/mL (≈ 204 µM); Solubility ([1]; Simulated gastric fluid [pH 2]): 0.150 mg/mL (≈ 307 µM); Solubility ([1]; Water): 0.0676 mg/mL (≈ 138 µM); Solubility ([1]; pH 1 (0.1N HCl)): 0.246 mg/mL (≈ 504 µM); Solubility ([1]; pH 3 citrate buffer): 0.0740 mg/mL (≈ 152 µM); Solubility ([1]; pH 4.65 acetate buffer): 0.0557 mg/mL (≈ 114 µM); Solubility ([1]; pH 6.8 phosphate buffer): 0.0551 mg/mL (≈ 113 µM); chemical and physical stability in bulk state [2]: chemically and physically stable
